Data: US7091351B2, “Vanadium compounds for treating cancer” (Parker Hughes Institute, priority 1998, dated 2006)
pEC50, pIC50: −log10 of the molar value. Read-outs that look alike come from different tables or passages of the source.

Key:
Assay type in all cases: cell-based, human
NALM-6 leukemia cells = test: Mitochondrial transmembrane potential, DiIC1 staining, flow cytometry
Protocol: […] Mitochondrial membrane potential (ΔΨm) was measured using two dyes including a lipophollic cation 5,5′,6,6′-tetrachloro-1,1′,3,3′-tetraethlybenzimidazolylcarbocyanine iodide (JC-1; Molecular probes, Eugene, Oreg.) and a cyanine dye, 1,1′,3,3,3′,3′-hexamethylindodicarbocyanine iodide [DiIC1(5); Molecular probes] as earlier described (22). JC-1 can enter the cells, and selectively mitochondria, and has been used to assess ΔΨm in a variety of studies (23,24). JC-1 is a monomer at 527 nm after being excited at 490 nm; with polarization of ΔΨm, J-aggregates are formed that shift emission to 590 nm (23, 24). This can be detected on a flow cytometer by assessing the green signal (at 527 nm) and green-orange signal (at 590 nm) simultaneously, creating an index of the number of cells polarized and depolarized mitochondria. The treated and control cells were washed and plated in a 6-well plate at 1×10^6 cells in fresh medium. JC-1 was added at a concentration of 10 μg/ml, and cells were incubated for 10 min in the dark at room temp. Cells were then washed twice with ice-cold PBS and immediately analyzed using Becton Dickinson (San Jose, Calif.) Calibur flow cytometer. At least 2×10^3 cells were analyzed to determine the percentage of cells with polarized and depolarized mitochondria. DiIC1(5), a cyanine dye is amphioatheic and cationic that concentrate in energized mitochondria and has been used in a variety of studies to measure the mitochondrial membrane potential (25–27). NALM-6 cells were stained with DiIC1(5) at 40 nM concentration for 30 min in the dark as described for JC-1. The cells were analyzed using Vantage Becton Dickinson cell sorter equipped with HeNe laser with excitation at 635 nm and the fluorescence was collected at 666 nm.

[1] = system: Ntera-2 testicular cancer cells; test: MTT cytotoxicity assay of vanadocenes, NTERA-2 cells; conditions: 24 h, 1.9-250 μM
How it was run: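 IC50 values come from MTT colorimetry (540 nm) after 24 h drug treatment at 1.9–250 μM in two-fold steps, started 24 h post-seeding. Formazan formed over 4 h at 37 °C and was solubilized overnight in 10% SDS/0.1% HCl; triplicate wells, 0.25% DMSO solvent control.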

[2] = system: BT-20 breast cancer cells; test: Immunofluorescence (anti-α-tubulin / toto-3) morphology, BT-20; conditions: 25 μM, 48-72 hr
Protocol: In some experiments, immunofluorescence was used to examine the morphologic features of vanadocene-treated cancer cells. At the end of the indicated treatment period, cells were washed twice with PBS and fixed in 2% paraformaldehyde. The cells were permeabilized and non-specific binding sites were blocked with 2.5% BSA in PBS containing 0.1% Triton X-100 for 30 min. Tubulin expression was examined by immunofluorescence using a monoclonal antibody against α-tubulin (Sigma Chemical Co, St. Louis, Mo.) at a dilution of 1:1000 and an anti-mouse IgG conjugated to FITC. Cells were washed in PBS and counterstained with toto-3 (Molecular Probes Inc., Eugene, Oreg.) for 10 min at a dilution of 1:1000. Cells were washed again with PBS and the coverslips were mounted with Vectashield (Vector Labs, Burlingame, Calif.) and viewed with a confocal microscope (Bio-Rad MRC 1024) mounted in a Nikon Labhophot upright microscope. Digital images were saved on a Jaz disk and processed with Adobe Photoshop software (Adobe Systems, Mountain View, Calif.).

| pEC50 (NALM-6 leukemia cells; 24 hr treatment, read-out: average EC50 for depolarization of mitochondria (decreased DiIC1 staining), 24 hr) | pEC50 (NALM-6 leukemia cells; 48 hr treatment, read-out: average EC50 for depolarization of mitochondria (decreased DiIC1 staining), 48 hr) | pEC50 (NALM-6 leukemia cells; 72 hr treatment, read-out: average EC50 for depolarization of mitochondria (decreased DiIC1 staining), 72 hr) | Compound | fraction of DiIC1-negative cells with depolarized mitochondria (NALM-6 leukemia cells; 1 μM, 48 hours (vehicle 6.5%)) | pIC50 [1] | morphological features of BT-20 cells [2] |
| --- | --- | --- | --- | --- | --- | --- |
| 5.44 | 6.52 | 7.10 | bis(4,7-dimethyl-1,10-phenanthroline)sulfatooxovanadium(IV) [Compound 29] | 91.5% | – | – |
| – | – | – | [Cl-].[Cl-].[V+4].c1cc[cH-]c1.c1cc[cH-]c1 [VDC, VCp2Cl2] | – | 4.13 | complete disruption of microtubules |
